Results reported in US11939334B2, “Substituted pyrimido[4,5-b][1,4]diazepines as PLK1 degradation inducers” (UPPTHERA, INC., priority 2021, dated 2024).
pIC50: −log10 of the molar value.

Legend:
H526 cell line = experiment: Cell viability assay for H526 cell line; format: cell-based; settings: Homo sapiens, NCI-H526, 120 h; H526 cells, 5 days, EZ-Cytox, 0.46-3000 nM
Outline: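 NCI-H526 cells exposed to compounds for 5 days in a CO2 incubator; viability read as absorbance at 450 nm after 3 min plate shaking; IC50 derived from treatment response.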

PLK1 = target: T1, PLK1 (Homo sapiens, UniProt P53350); experiment: Luciferase assay for PLK1 in HeLa LgBit (Plk1-HiBit KI) cell line; format: cell-based; settings: 300 nM compound, luminescence after 9 hours
T1 construct: endogenous in cells; host or cells: HeLa cells stably expressing LgBit, with CRISPR/Cas9 knock-in of HiBit at the endogenous PLK1 locus
T1 sequence (P53350 whole entry): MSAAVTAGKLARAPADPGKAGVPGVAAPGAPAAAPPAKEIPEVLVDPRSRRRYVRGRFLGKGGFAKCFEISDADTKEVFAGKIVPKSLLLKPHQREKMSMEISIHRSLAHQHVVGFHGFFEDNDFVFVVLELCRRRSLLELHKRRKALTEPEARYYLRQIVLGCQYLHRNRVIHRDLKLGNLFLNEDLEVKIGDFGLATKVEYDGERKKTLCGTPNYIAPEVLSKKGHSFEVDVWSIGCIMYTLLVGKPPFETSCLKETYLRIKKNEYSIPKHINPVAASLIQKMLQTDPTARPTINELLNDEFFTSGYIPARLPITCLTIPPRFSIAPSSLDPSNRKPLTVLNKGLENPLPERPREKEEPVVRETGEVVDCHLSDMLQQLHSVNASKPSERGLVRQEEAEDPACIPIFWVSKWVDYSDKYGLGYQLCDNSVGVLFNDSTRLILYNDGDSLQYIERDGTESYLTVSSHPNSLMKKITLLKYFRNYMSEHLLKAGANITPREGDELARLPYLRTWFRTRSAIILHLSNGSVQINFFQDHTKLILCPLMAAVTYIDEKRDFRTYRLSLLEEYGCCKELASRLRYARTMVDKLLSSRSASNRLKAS
Outline: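 HeLa LgBit cells with endogenous Plk1 C-terminally HiBiT-tagged by CRISPR knock-in were synchronized by 2 mM thymidine block for 24 h, then released and seeded. After 18 h, Endurazine was added and compounds were dosed at 300 nM. Luminescence was tracked in real time; activity is the ratio to DMSO.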

MRC-5 cell line = experiment: Cell viability assay for MRC-5 cell line; settings: Homo sapiens, MRC5, 120 h, read-out: Activity: IC50 value (nM) to MRC-5 cell line
Description: Cell Viability Assay for MRC-5 Cell Line
(1) Culture of MRC-5 Cell Line
The MRC-5 cell line was purchased from Korea Cell Line Bank (KCLB), Seoul, Korea. Passage of cultured cells was maintained within P15.
(2) Treatment of Compounds of the Present Invention
6×10^3 cells were seeded for each well of a 96-well plate (SPL), and the cells were cultured in total volume of 150 μL.
Each well was mixed with a medium and treated, and the volume was set to 50 μL, so that the total volume of each well was 200 μL. Then, it was cultured in 37° C.
The following compounds were used as comparative examples, and the cell viability assay was performed in the same manner as in the compounds of Examples.
(3) Cytotoxicity Experiment
After treating EZ-Cytox (DOGEN, Cat. NO. EZ-3000, Lot. No. DLS2112) 20 μL in each well of completely cultured plate, it was cultured in 37° C. CO2 incubator for 4 hours. […] The data were converted into graphs using the Prism (ver. 9) program.

SMILES	pIC50 (H526 cell line)	Activity: ratio of the luminescence value of each Exemplary Compound treatment group to DMSO treatment group (PLK1)	IC50 (MRC-5 cell line)
COc1cc(C(=O)NC2CC3(CCN(CC4CCN(c5c(F)cc(C6CCC(=O)NC6=O)cc5F)CC4)CC3)C2)ccc1Nc1ncc2c(n1)N(C(C)C)CC(F)(F)C(=O)N2C (stereo not drawn) [Compound 15, 4-((7,7-difluoro-9-isopropyl-5-methyl-6-oxo-6,7,8,9-tetrahydro-5H-pyrimido[4,5-b][1,4]diazepin-2-yl)amino)-N-(7-((1-(4-(2,6-dioxopiperidin-3-yl)-2,6-difluorophenyl)piperidin-4-yl)methyl)-7-azaspiro[3.5]nonan-2-yl)-3-methoxybenzamide]	> 7.52	++ (++ <0.6)	17700 nM
COc1cc(C(=O)NC2CC3(CCN(CC4CCN(c5ccc(C6CCC(=O)NC6=O)cc5)CC4)CC3)C2)ccc1Nc1ncc2c(n1)N(C(C)C)CC(F)(F)C(=O)N2C (stereo not drawn) [Compound 19, 4-((7,7-difluoro-9-isopropyl-5-methyl-6-oxo-6,7,8,9-tetrahydro-5H-pyrimido[4,5-b][1,4]diazepin-2-yl)amino)-N-(7-((1-(4-(2,6-dioxopiperidin-3-yl)phenyl)piperidin-4-yl)methyl)-7-azaspiro[3.5]nonan-2-yl)-3-methoxybenzamide]	> 7.52	++ (++ <0.6)	13100 nM
Cc1cc(C(=O)NC2CC3(CCN(CC4CCN(c5ccc(C6CCC(=O)NC6=O)cc5F)CC4)CC3)C2)c(F)cc1Nc1ncc2c(n1)N(C(C)C)CC(F)(F)C(=O)N2C (stereo not drawn) [Compound 21, 4-((7,7-difluoro-9-isopropyl-5-methyl-6-oxo-6,7,8,9-tetrahydro-5H-pyrimido[4,5-b][1,4]diazepin-2-yl)amino)-N-(7-((1-(4-(2,6-dioxopiperidin-3-yl)-2-fluorophenyl)piperidin-4-yl)methyl)-7-azaspiro[3.5]nonan-2-yl)-2-fluoro-5-methylbenzamide]	> 7.30	++ (++ <0.6)	12600 nM
COc1cc(C(=O)NC2CCN(C3CC4(CCN(c5ccc(C6CCC(=O)NC6=O)cc5F)CC4)C3)CC2)ccc1Nc1ncc2c(n1)N(C(C)C)CC(F)(F)C(=O)N2C (stereo not drawn) [Compound 39, 4-((7,7-difluoro-9-isopropyl-5-methyl-6-oxo-6,7,8,9-tetrahydro-5H-pyrimido[4,5-b][1,4]diazepin-2-yl)amino)-N-(1-(7-(4-(2,6-dioxopiperidin-3-yl)-2-fluorophenyl)-7-azaspiro[3.5]nonan-2-yl)piperidin-4-yl)-3-methoxybenzamide]	> 7.30	++ (++ <0.6)	5800 nM
